Laboratory results: ChEMBL document CHEMBL1201862, “PubChem BioAssay data set” (2004)
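Results reflect a 48-hour exposure of cells in 96-well plates to compound at five concentrations. The concentration for 50% growth inhibition is given as GI50.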 Active and inactive are the calls of the source. Cut-off read from the data, not from the text of the source: active = GI50 up to about 1.1 µM and inactive = higher.

Legend:
Test in all cases: NCI anticancer screen, dose series, 48 h
[1] = test system: DLD-1
[2] = test system: HOP-92
[3] = test system: SF-539
[4] = test system: NCI-H460
[5] = test system: KM12
[6] = test system: A498
[7] = test system: KM-20L2
[8] = test system: CCRF-CEM
[9] = test system: SF-295
[10] = test system: SF-268
[11] = test system: SK-MEL-28
[12] = test system: K562
[13] = test system: RPMI-8226
[14] = test system: NCI-H226
[15] = test system: NCI-H23
[16] = test system: HCC 2998
[17] = test system: SW-620
[18] = test system: SNB-75
[19] = test system: M14
[20] = test system: OVCAR-3
[21] = test system: RXF 393
[22] = test system: SK-MEL-2
[23] = test system: MOLT-4
[24] = test system: NCI-H522
[25] = test system: SK-MEL-5
[26] = test system: Malme-3M
[27] = test system: DMS-114
[28] = test system: U-251
[29] = test system: CAKI-1
[30] = test system: TK-10
[31] = test system: COLO 205
[32] = test system: SNB-19
[33] = test system: EKVX
[34] = test system: ACHN
[35] = test system: A549
[36] = test system: OVCAR-4
[37] = test system: HL-60
[38] = test system: HT-29
[39] = test system: HOP-62
[40] = test system: UACC-257
[41] = test system: OVCAR-8
[42] = test system: OVCAR-5
[43] = test system: SN12C
[44] = test system: IGROV-1
[45] = test system: 786-0
[46] = test system: LOX IMVI
[47] = test system: UO-31
[48] = test system: LXFL 529
[49] = test system: XF498
[50] = test system: HOP-18
[51] = test system: HCT-15
[52] = test system: SNB-78
[53] = test system: DMS-273
[54] = test system: HCT-116
[55] = test system: UACC-62
[56] = test system: DU-145
[57] = test system: MCF7
[58] = test system: MDA-MB-231
[59] = test system: PC-3
[60] = test system: MDA-MB-435
[61] = test system: Hs-578T
[62] = test system: T47D
[63] = test system: BT-549
[64] = test system: MDA-N
[65] = test system: NCI/ADR-RES
[66] = test system: SK-OV-3
[67] = test system: SR

With `Cc1[nH]c2cc([N+](=O)[O-])ccc2c1[N+](=O)[O-]` the GI50 [1] was 22.6 µM (inactive), the GI50 [2] was 3.9 µM (inactive) and the GI50 [3] was 18.8 µM (inactive). For the same molecule, the GI50 [4] was 20.6 µM (inactive), the GI50 [5] was 21.3 µM (inactive) and the GI50 [6] was 17.3 µM (inactive). For the same molecule, the GI50 [7] was 27.4 µM (inactive), the GI50 [8] was 16.8 µM (inactive) and the GI50 [9] was 17.3 µM (inactive). For the same molecule, the GI50 [10] was 22.1 µM (inactive), the GI50 [11] was 21 µM (inactive) and the GI50 [12] was 22.2 µM (inactive). The GI50 [13] was 10.5 µM (inactive), the GI50 [14] was 14.2 µM (inactive) and the GI50 [15] was 17.7 µM (inactive). For the same molecule, the GI50 [16] was 15 µM (inactive), the GI50 [17] was 25.2 µM (inactive) and the GI50 [18] was 19 µM (inactive). For the same molecule, the GI50 [19] was 19.5 µM (inactive), the GI50 [20] was 25.1 µM (inactive) and the GI50 [21] was 13.6 µM (inactive). The GI50 [22] was 14.1 µM (inactive), the GI50 [23] was 19.5 µM (inactive) and the GI50 [24] was 13.3 µM (inactive). For the same molecule, the GI50 [25] was 14 µM (inactive), the GI50 [26] was 13.9 µM (inactive) and the GI50 [27] was 9.93 µM (inactive). For the same molecule, the GI50 [28] was 19.9 µM (inactive), the GI50 [29] was 19 µM (inactive) and the GI50 [30] was 29.7 µM (inactive). For the same molecule, the GI50 [31] was 13.7 µM (inactive), the GI50 [32] was 18.7 µM (inactive) and the GI50 [33] was 11.7 µM (inactive). For the same molecule, the GI50 [34] was 15.5 µM (inactive), the GI50 [35] was 17.1 µM (inactive) and the GI50 [36] was 14.1 µM (inactive). For the same molecule, the GI50 [37] was 20.6 µM (inactive), the GI50 [38] was 27.9 µM (inactive) and the GI50 [39] was 7.28 µM (inactive). For the same molecule, the GI50 [40] was 17 µM (inactive), the GI50 [41] was 25.8 µM (inactive) and the GI50 [42] was 27.2 µM (inactive). The GI50 [43] was 25.6 µM (inactive), the GI50 [44] was 26.2 µM (inactive) and the GI50 [45] was 29 µM (inactive). The GI50 [46] was 24.6 µM (inactive), the GI50 [47] was 7.96 µM (inactive) and the GI50 [48] was 17.2 µM (inactive). For the same molecule, the GI50 [49] was 20.7 µM (inactive).

In the case of `COc1cc(C2c3cc4c(cc3[C@@H](NCCN3CCOCC3)C3COC(=O)[C@H]23)OCO4)cc(OC)c1O` (stereo partly specified), the GI50 [1] was 6.18 µM (inactive), the GI50 [2] was 1.04 µM (active) and the GI50 [3] was 0.836 µM (active). The GI50 [5] was 2.42 µM (inactive), the GI50 [50] was 2.81 µM (inactive) and the GI50 [7] was 2.96 µM (inactive). The GI50 [9] was 1.35 µM (inactive), the GI50 [10] was 1.56 µM (inactive) and the GI50 [11] was 3.71 µM (inactive). The GI50 [12] was 5.56 µM (inactive), the GI50 [16] was 1.97 µM (inactive) and the GI50 [17] was 1.23 µM (inactive). The GI50 [19] was 2.57 µM (inactive), the GI50 [20] was 8.02 µM (inactive) and the GI50 [51] was 1.65 µM. The GI50 [21] was 2.3 µM (inactive), the GI50 [22] was 4.17 µM (inactive) and the GI50 [24] was 2.51 µM (inactive). For the same molecule, the GI50 [52] was 16.5 µM (inactive), the GI50 [26] was 2.31 µM (inactive) and the GI50 [28] was 0.906 µM (active). The GI50 [29] was 1.97 µM (inactive), the GI50 [30] was 7.85 µM (inactive) and the GI50 [32] was 2.51 µM (inactive). For the same molecule, the GI50 [33] was 14.2 µM (inactive), the GI50 [53] was 0.437 µM (active) and the GI50 [36] was 17.8 µM (inactive). The GI50 [38] was 4.65 µM (inactive), the GI50 [39] was 0.541 µM (active) and the GI50 [40] was 3.23 µM (inactive). The GI50 [41] was 2.18 µM (inactive), the GI50 [54] was 3.01 µM (inactive) and the GI50 [44] was 8.11 µM (inactive). For the same molecule, the GI50 [45] was 1.19 µM (inactive), the GI50 [46] was 0.962 µM (active) and the GI50 [47] was 1.77 µM (inactive). The GI50 [48] was 11.3 µM (inactive) and the GI50 [55] was 1.21 µM (inactive).

`CCC(C)NC(=S)N/N=C(\C)c1nc2cccnc2[nH]1` (stereo unspecified) was tested, and the GI50 [2] was 7.18 µM (inactive), the GI50 [3] was 21.7 µM (inactive) and the GI50 [56] was 16.9 µM (inactive). For the same molecule, the GI50 [4] was 10 µM (inactive), the GI50 [5] was 15.9 µM (inactive) and the GI50 [6] was 57.3 µM (inactive). For the same molecule, the GI50 [57] was 2.1 µM (inactive), the GI50 [8] was 3.09 µM (inactive) and the GI50 [9] was 5.53 µM (inactive). The GI50 [10] was 8.36 µM (inactive), the GI50 [11] was 33.9 µM (inactive) and the GI50 [12] was 2.24 µM (inactive). For the same molecule, the GI50 [13] was 21.6 µM (inactive), the GI50 [14] was 4.42 µM (inactive) and the GI50 [58] was 6.95 µM (inactive). For the same molecule, the GI50 [15] was 41.6 µM (inactive), the GI50 [59] was 8.85 µM (inactive) and the GI50 [16] was 13.4 µM (inactive). For the same molecule, the GI50 [60] was 31.3 µM (inactive), the GI50 [17] was 4.52 µM (inactive) and the GI50 [61] was 19.3 µM (inactive). The GI50 [18] was 48.5 µM (inactive), the GI50 [19] was 12.7 µM (inactive) and the GI50 [62] was 2.1 µM (inactive). The GI50 [20] was 3.25 µM (inactive), the GI50 [51] was 5.64 µM and the GI50 [21] was 15.6 µM (inactive). For the same molecule, the GI50 [63] was 13.5 µM (inactive), the GI50 [22] was 5.92 µM (inactive) and the GI50 [23] was 3.6 µM (inactive). The GI50 [24] was 7.87 µM (inactive), the GI50 [25] was 4.72 µM (inactive) and the GI50 [26] was 6.73 µM (inactive). For the same molecule, the GI50 [28] was 9.14 µM (inactive), the GI50 [29] was 4.07 µM (inactive) and the GI50 [30] was 12.3 µM (inactive). The GI50 [31] was 3.54 µM (inactive), the GI50 [64] was 47.4 µM (inactive) and the GI50 [32] was 32.4 µM (inactive). For the same molecule, the GI50 [33] was 6.73 µM (inactive), the GI50 [34] was 9.57 µM (inactive) and the GI50 [35] was 14.9 µM (inactive). For the same molecule, the GI50 [36] was 4.91 µM (inactive), the GI50 [37] was 4.92 µM (inactive) and the GI50 [38] was 4.49 µM (inactive). For the same molecule, the GI50 [39] was 7.78 µM (inactive), the GI50 [40] was 5.79 µM (inactive) and the GI50 [65] was 16.7 µM (inactive). For the same molecule, the GI50 [41] was 4 µM (inactive), the GI50 [42] was 13.4 µM (inactive) and the GI50 [43] was 21.6 µM (inactive). For the same molecule, the GI50 [54] was 6.05 µM (inactive), the GI50 [44] was 12.2 µM (inactive) and the GI50 [45] was 13.6 µM (inactive). For the same molecule, the GI50 [66] was 10.3 µM (inactive), the GI50 [46] was 10.9 µM (inactive) and the GI50 [47] was 2.32 µM (inactive). The GI50 [67] was 3.85 µM (inactive) and the GI50 [55] was 6.11 µM (inactive).
